Experimental data as given in US8309558B2, “Compounds for the treatment of hepatitis C” (Bristol-Myers Squibb Company, priority 2008, dated 2012).
Where two headings read alike, the source gives them in different places.

Legend:
[1] = molecular target: T1, HCV NS5B RdRp genotype 1b (Hepatitis C virus genotype 1b, UniProt Q9WMX2); assay: Standard HCV NS5B RdRp enzyme assay; type: biochemical; conditions: HCV NS5B RdRp genotype 1b, read-out: IC50
T1 construct: The protein was expressed with an 18 amino acid C-terminal truncation to enhance the solubility; made in house; host or cells: E. coli BL21(DE3), pET21a vector
Outline: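 Radiometric SPA measuring 3H-UMP incorporation on polyA/biotin-oligo-dT12 (6 nM/180 nM), 0.29 μM total UTP. Enzyme: NS5B 1b lacking last 18 residues, 28 nM final, 30° C for 60 min in 20 mM Hepes pH 7.5, 2.5 mM MgCl2, 2% DMSO. IC50 from seven-point curves.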

[2] = tested on: HCV replicon cells; assay: HCV replicon FRET / luciferase assay (96-well plates); type: cell-based; conditions: Hepatitis C virus, HCV replicon, read-out: EC50
Outline: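 Percent activity is background-subtracted signal relative to untreated cell wells, with background taken from maximal protease-inhibitor wells. Cytotoxicity is Alamar blue fluorescence relative to controls. Replicon inhibition was read by NS3 FRET peptide cleavage (340/490 nm) or luciferase.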

[3] = untitled table after Table 1b, values without asterisk

T1 sequence (Q9WMX2 2420-2992): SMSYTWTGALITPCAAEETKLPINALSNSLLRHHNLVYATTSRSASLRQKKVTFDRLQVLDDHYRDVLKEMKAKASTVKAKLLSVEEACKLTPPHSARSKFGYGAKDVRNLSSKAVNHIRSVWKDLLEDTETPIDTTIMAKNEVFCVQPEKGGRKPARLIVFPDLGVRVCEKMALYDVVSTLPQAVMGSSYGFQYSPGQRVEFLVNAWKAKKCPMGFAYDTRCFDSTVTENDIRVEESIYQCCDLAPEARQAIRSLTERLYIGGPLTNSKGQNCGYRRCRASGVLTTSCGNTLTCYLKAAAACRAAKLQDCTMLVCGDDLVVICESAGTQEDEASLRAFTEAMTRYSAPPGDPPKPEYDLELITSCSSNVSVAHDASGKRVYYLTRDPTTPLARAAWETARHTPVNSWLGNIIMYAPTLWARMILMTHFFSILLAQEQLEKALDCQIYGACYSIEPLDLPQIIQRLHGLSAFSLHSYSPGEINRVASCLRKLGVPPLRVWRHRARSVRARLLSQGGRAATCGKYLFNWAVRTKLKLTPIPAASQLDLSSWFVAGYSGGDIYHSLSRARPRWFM

SMILES | IC50 ([1]; Table 1b) [nM] | EC50 ([2]; Table 1b) [nM] | IC50 ([1]; untitled table after Table 1b) [nM] | EC50 [2, 3] [nM]
CNC(=O)c1c(-c2ccc(F)cc2)oc2ccc(-c3cc(C(=O)NC(C)(C)c4ccccc4)ccc3OC)cc12 [drawing 355] | < 250 | < 250 |  | 
CNC(=O)c1c(-c2ccc(F)cc2)oc2ccc(-c3cc(C(=O)NC4(c5ccccc5)CC4)ccc3OC)cc12 [drawing 356] | < 250 | < 250 |  | 
CNC(=O)c1c(-c2ccc(F)cc2)oc2ccc(-c3cc(C(=O)NC4(c5ccccc5)CC4)ccc3C)cc12 [drawing 362] | < 250 | < 250 |  | 
CNC(=O)c1c(-c2ccc(F)cc2)oc2ccc(-c3cc(C(=O)NC4(c5ccccn5)CC4)ccc3Cl)cc12 [drawing 384] | < 250 | < 250 |  | 
CNC(=O)c1c(-c2ccc(F)cc2)oc2ccc(-c3cc(C(=O)NCC(C)C)ccc3OCCC3CNCCO3)cc12 (stereo not drawn) [drawing 415] | < 250 | < 250 |  | 
CNC(=O)c1c(-c2ccc(F)cc2)oc2ccc(-c3cc(C(=O)NC4(c5ccccn5)CC4)ccc3C)cc12 [drawing 425] | < 250 | < 250 |  | 
CNC(=O)c1c(-c2ccc(F)cc2)oc2ccc(-c3cc(C(=O)NC4(c5nc(C)no5)CC4)c(OC)cc3C)cc12 [drawing 500] | < 250 | < 250 |  | 
CNC(=O)c1c(-c2ccc(F)cc2)oc2ccc(-c3cc(C(=O)NC4(c5ccncc5)CC4)ccc3C)cc12 [drawing 501] | < 250 | < 250 |  | 
CNC(=O)c1c(-c2ccc(F)cc2)oc2ccc(-c3cc(C(=O)NC4(c5ccccn5)CC4)cc(F)c3C)cc12 [drawing 558] | < 250 | < 250 |  | 
CNC(=O)c1c(-c2ccc(F)cc2)oc2ccc(-c3cc(C(=O)NC4(c5ncccn5)CC4)ccc3C)cc12 [drawing 570] | < 250 | < 250 |  | 
CNC(=O)c1c(-c2ccc(F)cc2)oc2ccc(-c3cc(C(=O)NC4(c5ncccn5)CC4)ccc3C)c(F)c12 [drawing 587] | < 250 | < 250 |  | 
CNC(=O)c1c(-c2ccc(F)cc2)oc2ccc(-c3cc(C(=O)NC4(c5ccccc5)CC4)ccc3OC)cc12 [drawing 604] |  |  | 9.95 | 1.78
CNC(=O)c1c(-c2ccc(F)cc2)oc2ccc(-c3cc(C(=O)NC4(c5ccccn5)CC4)ccc3Cl)cc12 [drawing 605] |  |  | 10 | 1.83
CNC(=O)c1c(-c2ccc(F)cc2)oc2ccc(-c3cc(C(=O)NC4(c5ccccn5)CC4)ccc3C)cc12 [drawing 606] |  |  | 8.6 | 1.95
CNC(=O)c1c(-c2ccc(F)cc2)oc2cc(N)c(-c3cccc(C(=O)NC(C)(C)c4ccccc4)c3)cc12 [drawing 607] |  |  | 5.45 | 2.47
CNC(=O)c1c(-c2ccc(F)cc2)oc2ccc(-c3cc(C(=O)NC(C)(C)c4ccccc4)ccc3OC)cc12 [drawing 608] |  |  | 9.65 | 3.04
CNC(=O)c1c(-c2ccc(F)cc2)oc2ccc(-c3cc(C(=O)NC4(c5ccccc5)CC4)ccc3F)cc12 [drawing 609] |  |  | 20 | 3.57
CNC(=O)c1c(-c2ccc(F)cc2)oc2ccc(-c3cccc(C(=O)NC4(c5ccccc5)CC4)c3)cc12 [drawing 610] |  |  | 5.9 | 3.58
CNC(=O)c1c(-c2ccc(F)cc2)oc2ccc(-c3cccc(C(=O)N4CCCCC4C)c3)cc12 (stereo not drawn) [drawing 611] |  |  | 290 | 1130
CNC(=O)c1c(-c2ccc(F)cc2)oc2ccc(-c3cccc(C(=O)N[C@H]4CCC[C@H]4c4ccc(Cl)cc4)c3)cc12 [drawing 612] |  |  | > 12500 | 1130
CNC(=O)c1c(-c2ccc(F)cc2)oc2ccc(-c3cccc(C(=O)N[C@@H](CO)C(C)C)c3)cc12 [drawing 613] |  |  | 800 | 1250
CCCC[C@H](CO)NC(=O)c1cccc(-c2ccc3oc(-c4ccc(F)cc4)c(C(=O)NC)c3c2)c1 [drawing 614] |  |  | 600 | 1260
CNC(=O)c1c(-c2ccc(F)cc2)oc2ccc(-c3cccc(C(=O)NCCOC)c3)cc12 [drawing 615] |  |  | 1710 | 1340
CNC(=O)c1c(-c2ccc(F)cc2)oc2ccc(-c3cccc(C(=O)N(C)CCC#N)c3)cc12 [drawing 616] |  |  | 800 | 1380
CCC[C@H](CO)NC(=O)c1cccc(-c2ccc3oc(-c4ccc(F)cc4)c(C(=O)NC)c3c2)c1 [drawing 617] |  |  | 1150 | 1390
CN1CN(C)c2c(-c3cccc(C(N)=O)c3)ccc3oc(-c4ccc(F)cc4)c(c23)C1=O [drawing 619] |  |  | > 12500 | 13700
CNC(=O)c1c(-c2ccc(F)cc2)oc2ccc(-c3ccc(C(=O)N(C)Cc4cccnc4)cc3)cc12 [drawing 620] |  |  | 9920 | 15100
